{
  "source": "ChEMBL document CHEMBL6083204",
  "about": "“Synthesis of a celastrol derivative as a cancer stem cell inhibitor through regulation of the STAT3 pathway for treatment of ovarian cancer” (RSC Med Chem, 2024)",
  "key": {"[1]": {"target": "Signal transducer and activator of transcription 3 (Homo sapiens) (UniProt P40763)", "sequence (P40763 whole entry)": "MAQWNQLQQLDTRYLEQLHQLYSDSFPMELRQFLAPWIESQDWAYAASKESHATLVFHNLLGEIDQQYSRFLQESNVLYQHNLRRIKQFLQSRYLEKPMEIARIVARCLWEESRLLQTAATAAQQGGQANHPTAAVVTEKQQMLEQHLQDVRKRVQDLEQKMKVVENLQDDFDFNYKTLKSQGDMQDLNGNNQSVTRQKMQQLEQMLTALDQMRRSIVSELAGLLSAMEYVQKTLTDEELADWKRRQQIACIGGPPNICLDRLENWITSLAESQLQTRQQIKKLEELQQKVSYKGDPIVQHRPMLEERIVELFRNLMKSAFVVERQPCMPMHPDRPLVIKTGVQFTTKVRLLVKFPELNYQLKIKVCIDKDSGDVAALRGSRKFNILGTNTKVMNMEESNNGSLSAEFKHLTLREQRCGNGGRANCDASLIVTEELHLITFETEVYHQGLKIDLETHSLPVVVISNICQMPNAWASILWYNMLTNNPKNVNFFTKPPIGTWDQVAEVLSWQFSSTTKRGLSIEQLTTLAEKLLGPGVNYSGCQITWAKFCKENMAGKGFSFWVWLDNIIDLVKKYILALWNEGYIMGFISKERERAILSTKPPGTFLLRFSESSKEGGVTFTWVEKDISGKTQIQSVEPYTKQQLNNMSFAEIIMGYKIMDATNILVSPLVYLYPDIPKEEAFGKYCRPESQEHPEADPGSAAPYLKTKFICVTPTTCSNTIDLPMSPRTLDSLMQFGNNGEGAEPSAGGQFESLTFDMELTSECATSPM", "assay": "Inhibition of STAT3 in human A2780 cells assessed as downregulation of STAT3 phosphorylation at Tyr705 residue in nuclei at 0.2 uM incubated for 24 hrs by Hoechst33342 staining based immunofluorescence assay", "format": "cell-based"}, "[2]": {"system": "A2780", "assay": "Induction of cell cycle arrest in human A2780 cells assessed as reduction of CDK2 expression at 0.8 uM incubated for 24 hrs by flow cytometry (reference value: 92.5 %)", "format": "functional", "design": "scale not given: the % may be the effect or the level left"}, "[3]": {"system": "A2780", "assay": "Induction of cell cycle arrest in human A2780 cells assessed as reduction of CDK4 expression at 0.8 uM incubated for 24 hrs by flow cytometry (reference value: 93.6 %)", "format": "functional", "design": "scale not given: the % may be the effect or the level left"}, "[4]": {"target": "Signal transducer and activator of transcription 3 (Homo sapiens) (UniProt P40763)", "assay": "Inhibition of STAT3 in human SK-OV-3 cells assessed as downregulation of cytoplasmic STAT3 phosphorylation at Ser727 residue at 0.2 uM incubated for 24 hrs by Hoechst33342 staining based immunofluorescence assay", "format": "cell-based"}, "[5]": {"target": "Signal transducer and activator of transcription 3 (Homo sapiens) (UniProt P40763)", "assay": "Inhibition of STAT3 in human SK-OV-3 cells assessed as downregulation of Mcl-1 expression at 0.1 to 0.4 uM incubated for 24 hrs by Western blotting analysis", "format": "cell-based", "details": "dose 0.1-0.4 µM"}, "[6]": {"system": "SK-OV-3", "assay": "Antitumor activity against human SK-OV-3 cells xenografted in BALB/c mouse assessed as appearance of shrunken nucleus in tumor tissue at 2 to 5 mg/kg,ip administrated for 21 consecutive days by hematoxylin and eosin staining based assay", "format": "functional, organism-based", "details": "dose 2-5 mg/kg"}, "[7]": {"system": "SK-OV-3", "assay": "Induction of cell cycle arrest in human SK-OV-3 cells assessed as reduction of CDK4 expression at 0.8 uM incubated for 24 hrs by flow cytometry (reference value: 66.8 %)", "format": "functional", "design": "scale not given: the % may be the effect or the level left"}, "[8]": {"system": "SK-OV-3", "assay": "Induction of ROS production in human SK-OV-3 cells assessed as increase in fluorescence intensity incubated for 24 hrs by DCFH-DA staining based flow cytometry", "format": "functional, cell-based"}, "[9]": {"system": "A2780", "assay": "Induction of apoptosis in human A2780 cells assessed as late apoptotic cells at 0.2 uM incubated for 24 hrs by Annexin V-FITC/7-AAD staining based flow cytometry (reference value: 2.1 %)", "format": "functional"}, "[10]": {"system": "A2780", "assay": "Induction of apoptosis in human A2780 cells assessed as increase in caspase-8 activity at 0.2 uM incubated for 24 hrs by flow cytometry (reference value: 1.2 %)", "format": "functional"}, "[11]": {"system": "OVCAR-3", "assay": "Antiproliferative activity against human OVCAR-3 cells assessed as inhibition of cell growth incubated for 72 hrs by MTT assay", "format": "functional, cell-based", "details": "OVCAR-3, 72 h"}, "[12]": {"system": "SK-OV-3", "assay": "Induction of apoptosis in human SK-OV-3 cells assessed as increase in caspase-3 activity at 0.2 uM incubated for 24 hrs by flow cytometry (reference value: 4.6 %)", "format": "functional"}, "[13]": {"system": "SK-OV-3", "assay": "Induction of apoptosis in human SK-OV-3 cells assessed as necrotic cells at 0.2 uM incubated for 24 hrs by Annexin V-FITC/7-AAD staining based flow cytometry (reference value: 0.6 %)", "format": "functional"}, "[14]": {"system": "SK-OV-3", "assay": "Induction of cell cycle arrest in human SK-OV-3 cells assessed as accumulation of cells at G2/M phase at 0.2 uM incubated for 24 hrs by BrdU staining based flow cytometry (reference value: 6.3 %)", "format": "functional"}, "[15]": {"system": "A2780", "assay": "Induction of cell cycle arrest in human A2780 cells assessed as reduction of CDK2 expression at 0.2 uM incubated for 24 hrs by flow cytometry (reference value: 92.5 %)", "format": "functional", "design": "scale not given: the % may be the effect or the level left"}, "[16]": {"system": "SK-OV-3", "assay": "Induction of cell cycle arrest in human SK-OV-3 cells assessed as accumulation of cells at S phase at 0.2 uM incubated for 24 hrs by BrdU staining based flow cytometry (reference value: 33.6 %)", "format": "functional"}, "[17]": {"system": "SK-OV-3", "assay": "Antiproliferative activity against human SK-OV-3 cells assessed as inhibition of cell growth incubated for 72 hrs by MTT assay", "format": "functional, cell-based", "details": "SK-OV-3, 72 h"}, "[18]": {"system": "A2780", "assay": "Induction of apoptosis in human A2780 cells assessed as viable cells at 0.4 uM incubated for 24 hrs by Annexin V-FITC/7-AAD staining based flow cytometry (reference value: 95 %)", "format": "functional", "details": "read-out: Activity"}, "[19]": {"system": "A2780", "assay": "Induction of cell cycle arrest in human A2780 cells assessed as reduction of CDK2 expression at 0.4 uM incubated for 24 hrs by flow cytometry (reference value: 92.5 %)", "format": "functional", "design": "scale not given: the % may be the effect or the level left"}, "[20]": {"system": "SK-OV-3", "assay": "Inhibition of cell invasion in human SK-OV-3 cells incubated for 24 hrs by crystal violet staining based transwell assay", "format": "functional"}, "[21]": {"system": "SK-OV-3", "assay": "Antiproliferative activity against human SK-OV-3 cells assessed as decrease in CD44 positive CD24 negative cells expression at 0.4 uM incubated for 24 hrs by FITC staining based flow cytometry (reference value: 85.6 %)", "format": "functional", "design": "scale not given: the % may be the effect or the level left"}, "[22]": {"target": "Signal transducer and activator of transcription 3 (Homo sapiens) (UniProt P40763)", "assay": "Inhibition of STAT3 in human SK-OV-3 cells assessed as downregulation of STAT3 phosphorylation at Tyr705 residue in nuclei at 0.2 uM incubated for 24 hrs by Hoechst33342 staining based immunofluorescence assay", "format": "cell-based"}, "[23]": {"system": "Mitochondrial membrane", "assay": "Induction of mitochondrial membrane potential loss in human A2780 cells at 0.2 uM incubated for 24 hrs by JC-1 staining based flow cytometry (reference value: 81 %)"}, "[24]": {"system": "A2780", "assay": "Induction of cell cycle arrest in human A2780 cells assessed as accumulation of cells at S phase at 0.2 uM incubated for 24 hrs by BrdU staining based flow cytometry (reference value: 51.6 %)", "format": "functional"}, "[25]": {"system": "SK-OV-3", "assay": "Antitumor activity against human SK-OV-3 cells xenografted in BALB/c mouse assessed as appearance of loosely arranged cells in tumor tissue at 2 to 5 mg/kg,ip administrated for 21 consecutive days by hematoxylin and eosin staining based assay", "format": "functional, organism-based", "details": "dose 2-5 mg/kg"}, "[26]": {"system": "SK-OV-3", "assay": "Induction of cell cycle arrest in human SK-OV-3 cells assessed as reduction of Cyclin D1 expression at 0.4 uM incubated for 24 hrs by flow cytometry (reference value: 93.8 %)", "format": "functional", "design": "scale not given: the % may be the effect or the level left"}, "[27]": {"system": "A2780", "assay": "Induction of apoptosis in human A2780 cells assessed as viable cells at 0.2 uM incubated for 24 hrs by Annexin V-FITC/7-AAD staining based flow cytometry (reference value: 95 %)", "format": "functional", "details": "read-out: Activity"}, "[28]": {"system": "A2780", "assay": "Induction of apoptosis in human A2780 cells assessed as increase in caspase-3 activity at 0.8 uM incubated for 24 hrs by flow cytometry (reference value: 1.5 %)", "format": "functional"}, "[29]": {"system": "A2780", "assay": "Induction of cell cycle arrest in human A2780 cells assessed as accumulation of cells at S phase at 0.4 uM incubated for 24 hrs by BrdU staining based flow cytometry (reference value: 51.6 %)", "format": "functional"}, "[30]": {"system": "SK-OV-3", "assay": "Induction of apoptosis in human SK-OV-3 cells assessed as increase in caspase-8 activity at 0.2 uM incubated for 24 hrs by flow cytometry (reference value: 2.5 %)", "format": "functional"}, "[31]": {"target": "Signal transducer and activator of transcription 3 (Homo sapiens) (UniProt P40763)", "assay": "Inhibition of STAT3 in human A2780 cells assessed as downregulation of cytoplasmic STAT3 phosphorylation at Tyr705 residue at 0.2 uM incubated for 24 hrs by Hoechst33342 staining based immunofluorescence assay", "format": "cell-based"}, "[32]": {"system": "SK-OV-3", "assay": "Induction of cell cycle arrest in human SK-OV-3 cells assessed as reduction of Cyclin D1 expression at 0.2 uM incubated for 24 hrs by flow cytometry (reference value: 93.8 %)", "format": "functional", "design": "scale not given: the % may be the effect or the level left"}},
  "note": "Active and inactive are the calls of the source. The calls are words filed in the database; no cut-off is given here.",
  "data": [
    {"compound": "CC1=C(O)C(=O)C=C2C1=CC=C1[C@@]2(C)CC[C@@]2(C)[C@@H]3C[C@](C)(C(=O)N4CCNCC4)CC[C@]3(C)CC[C@]12C", "values": [
      {"measurement": "inhibition", "setting": "[1]", "value": "Active"},
      {"measurement": "Activity", "setting": "[2]", "value": 8.6, "unit": "%"},
      {"measurement": "Activity", "setting": "[3]", "value": 18.7, "unit": "%"},
      {"measurement": "inhibition", "setting": "[4]", "value": "Active; Showed Mild Inhibition Activity"},
      {"measurement": "inhibition", "setting": "[5]", "value": "Active"},
      {"measurement": "Activity", "setting": "[6]", "value": "Active"},
      {"measurement": "Activity", "setting": "[7]", "value": 29.8, "unit": "%"},
      {"measurement": "Activity", "setting": "[8]", "value": "Dose-dependent-effect"},
      {"measurement": "Activity", "setting": "[9]", "value": 5.3, "unit": "%"},
      {"measurement": "Activity", "setting": "[10]", "value": 1, "unit": "%"},
      {"measurement": "IC50", "setting": "[11]", "value": 250, "unit": "nM"},
      {"measurement": "Activity", "setting": "[12]", "value": 6.8, "unit": "%"},
      {"measurement": "Activity", "setting": "[13]", "value": 0.7, "unit": "%"},
      {"measurement": "Activity", "setting": "[14]", "value": 6.7, "unit": "%"},
      {"measurement": "Activity", "setting": "[15]", "value": 89.6, "unit": "%"},
      {"measurement": "Activity", "setting": "[16]", "value": 33.8, "unit": "%"},
      {"measurement": "IC50", "setting": "[17]", "value": 210, "unit": "nM"},
      {"measurement": "viability at 0.4 µM", "setting": "[18]", "value": 75.3, "unit": "%"},
      {"measurement": "Activity", "setting": "[19]", "value": 69.9, "unit": "%"},
      {"measurement": "inhibition", "setting": "[20]", "value": "Dose-dependent-effect"},
      {"measurement": "Activity", "setting": "[21]", "value": 51.67, "unit": "%"},
      {"measurement": "inhibition", "setting": "[22]", "value": "Active"},
      {"measurement": "Activity", "setting": "[23]", "value": 53.2, "unit": "%"},
      {"measurement": "Activity", "setting": "[24]", "value": 41.7, "unit": "%"},
      {"measurement": "Activity", "setting": "[25]", "value": "Active"},
      {"measurement": "Activity", "setting": "[26]", "value": 68.2, "unit": "%"},
      {"measurement": "viability at 0.2 µM", "setting": "[27]", "value": 89.3, "unit": "%"},
      {"measurement": "Activity", "setting": "[28]", "value": 70.7, "unit": "%"},
      {"measurement": "Activity", "setting": "[29]", "value": 25.2, "unit": "%"},
      {"measurement": "Activity", "setting": "[30]", "value": 6.2, "unit": "%"},
      {"measurement": "inhibition", "setting": "[31]", "value": "Active; Showed Mild Inhibition Activity"},
      {"measurement": "Activity", "setting": "[32]", "value": 90.3, "unit": "%"}
    ]}
  ]
}
